Results published in EPA's ToxValDB 9.5 (doi:10.2903/j.efsa.2017.4978).

Legend:
[1] = test system: Mus musculus; settings: acute; mortality
[2] = test system: Folsomia candida; settings: chronic/long-term; duration: 28 days; reproduction
[3] = test system: Hypoaspis aculeifer; settings: chronic/long-term; duration: 14 days; reproduction
[4] = test system: Tagia sp.; settings: chronic/long-term; duration: 56 days; reproduction
[5] = chronic
[6] = test system: Anas platyrhynchos; settings: reproductive
[7] = test system: Apis mellifera; settings: acute, mortality
[8] = test system: Bibionidae; settings: chronic/long-term; duration: 28 days
[9] = test system: Canidae; settings: oral, Dog Other, organ weight
[10] = test system: Colinus virginianus; settings: oral
[11] = test system: Cyprinodon variegatus; settings: acute; duration: 96 hours; mortality
[12] = test system: Daphnia magna; settings: chronic/long-term; duration: 21 days; reproduction
[13] = test system: Pimephales promelas; settings: chronic/long-term; duration: 262 days; growth
[14] = test system: Rattus norvegicus
[15] = test system: Aphidius rhopalosiphi; assay: LR50; higher = less toxic; settings: not reported; mortality

SMILES | LD50 [1] [mg/kg] | NOEC [2] [mg/kg] | NOEC [3] [mg/kg] | NOEC [4] [mg/kg] | NOEC [5] [mg/L] | NOEL [6] [mg/kg-day] | LD50 ([7]; duration: 48 hours, dermal) [µg/piece] | LD50 ([7]; duration: 72 hours, oral, unspecified) [µg/piece] | NOEC [8] [mg/L] | NOAEL ([9]; chronic, duration: 1 years) [mg/kg-day] | NOAEL ([9]; short-term, duration: 2 weeks) [mg/kg-day] | LD50 ([10]; acute, mortality) [mg/kg-day] | NOEC ([10]; reproduction developmental, diet) [mg/kg-day] | LC50 [11] [µg/mL] | NOEC [12] [mg/L] | NOEC [13] [mg/L] | LD50 ([14]; acute, oral, mortality) [mg/kg] | NOAEL ([14]; chronic, duration: 2 years, organ weight) [mg/kg-day] | NOAEL ([14]; reproduction developmental, M, body weight) [mg/kg-day] | LR50 [15] [g/ha]
Cc1cc(C)cc(C(=O)N(NC(=O)c2cccc(O)c2C)C(C)(C)C)c1 | > 5000 |  |  |  |  |  |  |  |  |  |  |  |  |  |  |  |  |  |  | 
COc1cccc(C(=O)NN(C(=O)c2cc(C)cc(C(=O)O)c2)C(C)(C)C)c1C |  | 20 | 1000 | 20 |  |  |  |  |  |  |  |  |  |  |  |  |  |  |  | 
COc1cccc(C(=O)NN(C(=O)c2cc(C)cc(C)c2)C(C)(C)C)c1C [Methoxyfenozide] | > 5000 | 20.5 |  | 2.04 | 0.01 | 138 | > 100 | > 2000 | 0.0065 | 9.8 | 18 | > 2250 | > 82.7 | > 2.8 | 0.39 | 0.53 | > 5000 | 10.2 | 153 | > 192
